Results from patent US7723523B2, “Tetrahydropyridothiophenes” (4SC AG, priority 2004, dated 2010).

How the values were obtained:
[1] = system: RKO (RKOp27) human colon adenocarcinoma cells; assay: Alamar Blue cell viability assay, anti-proliferative/cytotoxic activity on proliferating RKOp27 cells; assay type: cell-based; settings: absence of Ponasterone A, 72 hours incubation, read-out: IC50 RKO p27 proliferating
Procedure, shortened: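 RKOp27 subclone of RKO cells, 4000/well in DMEM with 10% FCS, was treated 24 h after seeding with semi-log compound dilutions in quadruplicate for 72 h at 37 °C, 5% CO2. Alamar Blue fluorescence (ex 544/em 590 nm) was read as % viability of untreated cells, and IC50 was taken from concentration-effect curves.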

[2] = system: RKO colon adenocarcinoma cells (RKOp27) arrested by expression of ectopic p27Kip1; assay: Alamar Blue cell viability assay on RKOp27 cells arrested by Ponasterone A-induced p27Kip1 (cell cycle specific mode of action); assay type: cell-based; settings: Homo sapiens, RKOp27, 72 h, cells arrested by p27Kip1 induced with 10 μM Ponasterone A, 72 hours incubation, read-out: IC50 RKO p27 arrested
Procedure, shortened: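 Viability measured by Alamar Blue fluorescence (ex 544, em 590 nm) after 72 h, 37 °C compound exposure in quadruplicate, normalized to untreated cells as 100%. Cells were p27Kip1-arrested RKOp27, induced with 10 μM Ponasterone A at seeding; compound added 24 h later.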

| SMILES | IC50 [1] [µM] | IC50 [2] [µM] |
| --- | --- | --- |
| N#Cc1c(NC(=O)/C=C/c2ccco2)sc2c1CCN(C(=O)OCc1cccnc1)C2 [Example 242, 3-Cyano-2-((E)-3-furan-2-yl-allanoylamino)-4,7-dihydro-5H-thieno[2,3-c]pyridine-6-carboxylic acid pyridin-3-ylmethyl ester] | ≤ 2 | ≥ 100 |
| N#Cc1c(NC(=O)/C=C/c2ccco2)sc2c1CCN(C(=O)OCCc1ccccn1)C2 [Example 243, 3-Cyano-2-((E)-3-furan-2-yl-allanoylamino)-4,7-dihydro-5H-thieno[2,3-c]pyridine-6-carboxylic acid 2-pyridin-2-yl-ethyl ester] | ≤ 2 | ≥ 100 |
